Like-named read-outs stand apart in the source and are kept apart here. *1 amine or outer side, *2 acyl side, *3 side chain or, on linkers, in order; H or OH if unused. Where a SMILES comes first, the peptide text is derived from it. Bridges are numbered along the chain shown (N, C = ends). Primed or numbered codes have the meaning given here. Where no end group is shown, it is not given here. [ ]: non-standard residue; d: D form. The star is where a group is joined. T1 = linker NH2CH2CH2N(SO2Me)CH2COOH, CS(=O)(=O)N(CCN[*:1])CC(=O)[*:2]; T1″ = NH2CH2CH2N(SO2Me)CH2COOH, CS(=O)(=O)N(CCN[*:1])CC(=O)[*:2]; dProlinol(O-CH2CO) = O=C(COC[C@H]1CCCN1[*:1])[*:2]; N(2-Aminoethyl)Gly = O=C(CN(CCN[*:3])[*:1])[*:2]; T3 = linker N(CH2)3CHCH2OCH2COOH; Nle = CCCC[C@H](N)C(=O)O; Ms = CS(=O)(=O)*

Series [1] has as its system peripheral blood mononuclear cells (PBMC). Put plainly: Cell death in normal peripheral blood mononuclear cells, annexin V positivity and FACS. In kind it is cell-based, human. Conditions: 6.25-50 ug/ml, six hours. On the procedure: Peripheral blood mononuclear cells (PBMC) were isolated from a normal donor. Cells were treated with 6.25, 12.5, 25 and 50 ug/ml for six hours and cell death was measured by annexin V positivity and FACS analysis.
CD34^+ hematopoietic progenitor cells were isolated from peripheral blood and treated for 2 hrs with integrin interaction inhibitors (12.5 and 50 μg/ml) and then plated in a methylcellulose media supplemented with growth factors supporting myeloid and erythroid colonies. Colonies were counted on day 12 post-plating. […] In addition, we evaluated the toxicity of integrin interaction inhibitors in normal peripheral blood mononuclear cells (PBMC).

The next series concerns H929 myeloma cells. In kind it is cell-based, human. Conditions: for activity relative to linear D-HYD1 (words): TOPRO 3; for bioactivity relative to parent/comparator peptide: SAR statements. On the procedure:
H929 cells were treated for 24 hours with varying concentrations of peptide. Cell death was measured by Topro-3 staining and FACS analysis. The IC50 values were obtained from linear regression analysis and an average value was obtained from 3 independent experiments.
Table 4 legend: Structure activity relationship in H929 myeloma cells of cyclic INTEGRIN INTERACTION INHIBITORS derivatives. The minimal bioactive core sequence of INTEGRIN INTERACTION INHIBITORS WSVVM (SEQ ID NO:33) was cyclized using 2 novel reduced amide bond beta turn promoters and KLKLK (SEQ ID NO:34) as the non-recognition sequence. H929 cells were treated with varying concentrations of the indicated peptide for 24 h. Cell viability was determined using Topro-3 staining and FACS analysis after drug treatment. IC50 values were generated from linear regressions generated from the dose response curves (n=mean of 3 independent experiments).
A colony forming assay was used to compare induced cell death in H929 multiple myeloma cells. Cells were treated with integrin interaction inhibitors, shown in FIG. 5 and Table 4, and cell death was measured following 24 hour peptide treatment by TOPRO-3 staining and FACS analysis.

For series [2], the target named is recombinant human CD44 ectodomain (amino acids 20-178, His-tagged, refolded from E. coli) (human) (UniProt P16070). As to the kind of experiment: SPR, recombinant CD44 ectodomain on biotin conjugated HYD1, two-state binding model. For orientation: In SPR one partner is held on a chip, and binding of the other changes the refractive index at the surface.
Series [3] concerns the target Neural cell adhesion molecule 1 (NCAM1) (Homo sapiens (Human)) (UniProt P13591). Put plainly: biotin-HYD1 NeutrAvidin pull-down of NCI-H929 membranes, LC-MS/MS.
Series [4] deals with Syndecan-1 (Homo sapiens (Human)) (UniProt P18827). The description is as above.
Series [5] concerns the target CD59 (UniProt P13987). The series is described as above.
Series [6] concerns the target Basigin (Homo sapiens (Human)) (UniProt P35613). The description is as above.
A further series addresses β1 integrin (UniProt P05556). Described as above.
The target of series [7] is CD44 (endogenous, of NCI-H929, U266, U937 and HL-60 cells) (human) (UniProt P16070). Described as above.
The target of series [8] is α4 integrin (Homo sapiens (Human)) (UniProt P13612). The description is as above.
The target of series [9] is recombinant human CD44 ectodomain (amino acids 20-178, His-tagged, refolded from E. coli) (human) (UniProt P16070). Put plainly: SPR, Biacore T100, recombinant CD44 ectodomain over biotin-HYD1 sensor chip, 1:1 binding model.
Series [10] deals with Syndecan-1 (Homo sapiens (Human)) (UniProt P18827). As to the kind of experiment: biotin-HYD1 NeutrAvidin pull-down of U266 membranes, LC-MS/MS.
The target in series [11] is Intercellular adhesion molecule 3 (ICAM3) (Homo sapiens (Human)) (UniProt P32942). Described as above.
The target of series [12] is CD59 (UniProt P13987). The series is described as above.
Series [13] has as its target Basigin (Homo sapiens (Human)) (UniProt P35613). The series is described as above.
Series [14] addresses Intercellular adhesion molecule 1 (ICAM1) (Homo sapiens (Human)) (UniProt P05362). Described as above.
Series [15] concerns the target CD44 (endogenous, of NCI-H929, U266, U937 and HL-60 cells) (human) (UniProt P16070). The series is described as above.
For series [16], the target named is CD59 (UniProt P13987). As to the kind of experiment: LC-MS/MS of the biotin-HYD1 binding complex pulled down from NCI-H929 membranes (row CD59, column NCI-H929) [panel A.].
Setting [17] is: Table 8, cyclic III peptide analogs, H929 cells, read-out: IC50.
[18] abbreviates: H929 myeloma cells, 24 h treatment, Topro-3 staining and FACS, mean of at least 3 independent experiments, read-out: IC50.

Sequence of CD59 (P13987 26-102 limits assumed): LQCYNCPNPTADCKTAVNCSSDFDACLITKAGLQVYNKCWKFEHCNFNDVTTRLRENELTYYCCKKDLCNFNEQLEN
Sequence of Syndecan-1 (Homo sapiens (Human)) (P18827 23-310 L136Q/G259V limits assumed): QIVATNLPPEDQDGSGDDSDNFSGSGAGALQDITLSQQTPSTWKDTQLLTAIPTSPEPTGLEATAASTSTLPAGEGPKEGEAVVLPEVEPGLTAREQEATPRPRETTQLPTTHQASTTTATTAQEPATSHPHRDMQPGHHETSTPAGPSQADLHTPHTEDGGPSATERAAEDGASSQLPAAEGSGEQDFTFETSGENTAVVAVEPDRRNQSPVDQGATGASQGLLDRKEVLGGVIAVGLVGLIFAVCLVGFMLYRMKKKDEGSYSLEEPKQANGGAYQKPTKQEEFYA
Sequence of Basigin (Homo sapiens (Human)) (P35613 other isoform, or with tags, fused parts or gaps limits assumed): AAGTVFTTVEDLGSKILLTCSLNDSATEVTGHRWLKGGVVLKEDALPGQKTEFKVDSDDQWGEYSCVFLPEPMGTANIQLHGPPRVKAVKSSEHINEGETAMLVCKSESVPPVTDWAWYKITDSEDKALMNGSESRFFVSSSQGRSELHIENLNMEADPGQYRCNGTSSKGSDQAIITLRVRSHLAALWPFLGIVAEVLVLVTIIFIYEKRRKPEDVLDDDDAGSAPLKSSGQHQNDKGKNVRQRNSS
Sequence of recombinant human CD44 ectodomain (amino acids 20-178, His-tagged, refolded from E. coli) (human) (P16070 20-178): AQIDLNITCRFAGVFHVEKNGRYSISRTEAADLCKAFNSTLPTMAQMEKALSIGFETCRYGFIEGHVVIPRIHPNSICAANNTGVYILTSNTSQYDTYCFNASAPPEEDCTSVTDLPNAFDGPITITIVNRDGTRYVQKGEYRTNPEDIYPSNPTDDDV
Sequence of CD44 (endogenous, of NCI-H929, U266, U937 and HL-60 cells) (human) (P16070 21-742 limits assumed): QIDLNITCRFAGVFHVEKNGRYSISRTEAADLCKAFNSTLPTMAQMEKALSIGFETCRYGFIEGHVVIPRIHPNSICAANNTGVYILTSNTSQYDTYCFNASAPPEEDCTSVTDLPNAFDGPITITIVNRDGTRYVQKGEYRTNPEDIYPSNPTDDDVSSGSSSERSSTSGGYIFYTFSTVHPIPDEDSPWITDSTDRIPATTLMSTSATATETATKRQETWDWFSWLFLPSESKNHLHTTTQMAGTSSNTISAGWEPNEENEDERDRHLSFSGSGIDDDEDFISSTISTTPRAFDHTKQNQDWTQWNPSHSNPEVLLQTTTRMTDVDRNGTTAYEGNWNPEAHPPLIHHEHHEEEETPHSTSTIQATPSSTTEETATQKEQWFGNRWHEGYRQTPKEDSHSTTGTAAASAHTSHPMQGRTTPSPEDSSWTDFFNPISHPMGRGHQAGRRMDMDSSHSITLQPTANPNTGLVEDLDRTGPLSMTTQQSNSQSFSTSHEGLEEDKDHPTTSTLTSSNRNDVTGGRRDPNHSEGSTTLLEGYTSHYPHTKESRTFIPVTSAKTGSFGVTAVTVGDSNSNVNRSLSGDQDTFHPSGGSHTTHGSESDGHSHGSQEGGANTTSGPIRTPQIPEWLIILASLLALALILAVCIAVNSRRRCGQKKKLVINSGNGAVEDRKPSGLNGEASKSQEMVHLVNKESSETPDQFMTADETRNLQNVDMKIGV
Sequence of β1 integrin (P05556 21-798): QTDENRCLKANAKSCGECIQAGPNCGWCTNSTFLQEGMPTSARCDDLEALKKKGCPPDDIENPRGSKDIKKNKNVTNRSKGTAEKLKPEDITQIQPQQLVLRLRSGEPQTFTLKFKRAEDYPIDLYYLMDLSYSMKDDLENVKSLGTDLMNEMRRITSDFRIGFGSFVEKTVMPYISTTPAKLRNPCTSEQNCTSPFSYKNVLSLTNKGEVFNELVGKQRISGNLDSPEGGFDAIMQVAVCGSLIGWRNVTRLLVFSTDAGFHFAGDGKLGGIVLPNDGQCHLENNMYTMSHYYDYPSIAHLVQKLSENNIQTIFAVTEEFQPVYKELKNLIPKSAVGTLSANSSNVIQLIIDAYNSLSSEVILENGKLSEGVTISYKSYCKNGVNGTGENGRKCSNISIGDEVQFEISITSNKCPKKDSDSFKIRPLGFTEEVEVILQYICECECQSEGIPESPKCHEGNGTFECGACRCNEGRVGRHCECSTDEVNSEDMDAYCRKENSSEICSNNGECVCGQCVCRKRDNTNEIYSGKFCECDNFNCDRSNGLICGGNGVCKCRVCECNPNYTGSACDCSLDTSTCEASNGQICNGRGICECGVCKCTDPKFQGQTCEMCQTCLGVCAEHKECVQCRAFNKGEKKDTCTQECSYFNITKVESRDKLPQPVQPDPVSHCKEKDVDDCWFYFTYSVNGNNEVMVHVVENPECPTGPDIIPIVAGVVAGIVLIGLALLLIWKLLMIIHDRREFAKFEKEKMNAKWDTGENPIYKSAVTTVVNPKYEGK
Sequence of Intercellular adhesion molecule 1 (ICAM1) (Homo sapiens (Human)) (P05362 28-532 limits assumed): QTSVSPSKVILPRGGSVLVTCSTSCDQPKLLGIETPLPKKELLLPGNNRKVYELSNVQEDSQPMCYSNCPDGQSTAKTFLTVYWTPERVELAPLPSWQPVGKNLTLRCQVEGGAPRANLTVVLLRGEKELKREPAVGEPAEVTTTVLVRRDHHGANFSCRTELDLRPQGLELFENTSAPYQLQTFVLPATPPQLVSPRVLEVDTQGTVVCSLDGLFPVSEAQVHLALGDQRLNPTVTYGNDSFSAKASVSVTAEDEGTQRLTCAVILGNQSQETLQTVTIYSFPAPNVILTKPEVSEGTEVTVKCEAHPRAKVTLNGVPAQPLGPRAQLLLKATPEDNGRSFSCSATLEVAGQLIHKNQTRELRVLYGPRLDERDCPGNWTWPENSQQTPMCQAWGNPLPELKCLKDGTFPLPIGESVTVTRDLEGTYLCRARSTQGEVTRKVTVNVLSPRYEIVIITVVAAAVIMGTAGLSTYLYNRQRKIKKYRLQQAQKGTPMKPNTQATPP
Sequence of Neural cell adhesion molecule 1 (NCAM1) (Homo sapiens (Human)) (P13591 other isoform, or with tags, fused parts or gaps limits assumed): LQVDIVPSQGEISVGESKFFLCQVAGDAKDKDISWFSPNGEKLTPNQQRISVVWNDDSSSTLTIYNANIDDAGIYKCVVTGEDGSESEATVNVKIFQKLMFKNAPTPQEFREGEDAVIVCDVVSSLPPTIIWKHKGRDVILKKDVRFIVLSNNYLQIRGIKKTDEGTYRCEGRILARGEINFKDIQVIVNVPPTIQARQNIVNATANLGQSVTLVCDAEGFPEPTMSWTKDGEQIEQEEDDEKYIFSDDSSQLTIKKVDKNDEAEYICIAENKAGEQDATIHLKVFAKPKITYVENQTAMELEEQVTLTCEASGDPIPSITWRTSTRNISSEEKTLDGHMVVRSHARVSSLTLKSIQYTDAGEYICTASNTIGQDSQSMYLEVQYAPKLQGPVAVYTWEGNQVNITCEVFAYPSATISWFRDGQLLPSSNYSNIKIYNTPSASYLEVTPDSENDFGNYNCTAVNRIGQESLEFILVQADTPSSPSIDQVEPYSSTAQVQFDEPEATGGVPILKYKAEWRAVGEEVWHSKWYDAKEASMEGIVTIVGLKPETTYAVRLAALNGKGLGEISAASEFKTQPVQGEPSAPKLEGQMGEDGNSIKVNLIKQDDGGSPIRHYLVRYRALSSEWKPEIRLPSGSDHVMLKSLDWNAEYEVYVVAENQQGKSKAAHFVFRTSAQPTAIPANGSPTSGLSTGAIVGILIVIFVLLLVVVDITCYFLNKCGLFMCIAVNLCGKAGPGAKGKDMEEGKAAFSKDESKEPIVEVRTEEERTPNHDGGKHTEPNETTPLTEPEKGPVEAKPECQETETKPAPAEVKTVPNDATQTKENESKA
Sequence of Intercellular adhesion molecule 3 (ICAM3) (Homo sapiens (Human)) (P32942 30-547 limits assumed): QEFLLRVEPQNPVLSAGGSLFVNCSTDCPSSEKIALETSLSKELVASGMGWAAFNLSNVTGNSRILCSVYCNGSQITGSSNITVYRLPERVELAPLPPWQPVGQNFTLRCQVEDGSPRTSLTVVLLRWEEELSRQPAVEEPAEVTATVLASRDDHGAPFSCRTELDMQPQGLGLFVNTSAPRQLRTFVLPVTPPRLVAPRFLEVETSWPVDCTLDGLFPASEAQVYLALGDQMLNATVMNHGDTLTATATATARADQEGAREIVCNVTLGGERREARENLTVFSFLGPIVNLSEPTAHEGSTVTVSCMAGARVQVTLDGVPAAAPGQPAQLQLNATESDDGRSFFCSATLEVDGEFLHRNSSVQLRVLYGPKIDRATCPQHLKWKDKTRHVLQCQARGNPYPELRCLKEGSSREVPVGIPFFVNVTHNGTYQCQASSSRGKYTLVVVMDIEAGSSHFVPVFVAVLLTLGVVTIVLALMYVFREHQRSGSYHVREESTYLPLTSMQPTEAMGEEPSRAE

For the molecule `CC[C@@H](C)[C@@H](NC(=O)[C@H](N)CCCCN)C(=O)N[C@H](CCCCN)C(=O)N[C@H](CCSC)C(=O)N[C@@H](C(=O)N[C@@H](C(=O)N[C@H](CO)C(=O)N[C@H](Cc1c[nH]c2ccccc12)C(=O)N[C@H](CCCCN)C(=O)NCC(=O)O)[C@H](C)CC)C(C)C` [HYD1], the “cell death in PBMC” value in series [1] is listed as “more potent in MM cells (H929) compared to normal hematopoietic cells”.
By IC50 is commonly meant the point on the concentration scale where inhibition reaches its midpoint. Turning to `CCCC[C@@H]1NC(=O)CN(S(C)(=O)=O)CCNC(=O)[C@H](CCCCN)NC(=O)[C@H](CC(C)C)NC(=O)[C@H](CCCCN)NC(=O)[C@H](CC(C)C)NC(=O)[C@H](CCCCN)NC(=O)COC[C@H]2CCCN2C(=O)[C@H](Cc2c[nH]c3ccccc23)NC(=O)[C@H](C)NC(=O)[C@H](Cc2ccccc2)NC(=O)[C@H](C(C)C)NC1=O` [Peptide 26, KLKLKT1N*VFAWT3] (Ms-[N(2-Aminoethyl)Gly][Nle]VFAW[dProlinol(O-CH2CO)]KLKLK; lactam 1-C), in the series with H929 myeloma cells (setting [17]), the 50% inhibitory concentration (IC50) was determined as 9 µM.
Take `CSCC[C@H]1NC(=O)CN(S(C)(=O)=O)CCNC(=O)[C@@H](CCCCN)NC(=O)[C@@H](CC(C)C)NC(=O)[C@@H](CCCCN)NC(=O)[C@@H](CC(C)C)NC(=O)[C@@H](CCCCN)NC(=O)CN(S(C)(=O)=O)CCNC(=O)[C@@H](Cc2c[nH]c3ccccc23)NC(=O)[C@@H](CO)NC(=O)[C@@H](C(C)C)NC(=O)[C@@H](C(C)C)NC1=O` [cyclic D-HYD1]: the IC50 in the series on H929 myeloma cells (24 h) was found to be 30 µM. For the same molecule, the “activity relative to linear D-HYD1 (words)” value in the series on H929 myeloma cells (H929 cells) is recorded as “twice as active as linear D-HYD1”; in the series on H929 myeloma cells (H929 cells, listed as c-D-HYD1), “about twice as active as linear D-HYD1”.
As to “KLKLKT1AAVVN*T1 (cyclo(KLKLK[T1″]AAVV[Nle][T1″])) [Peptide 15]”, the IC50 with H929 myeloma cells (setting [18]) came out at 18 µM; in the series on H929 myeloma cells (setting [17]), 3 µM. Also, the “bioactivity relative to parent/comparator peptide” value in the series on H929 myeloma cells (H929 cells) is recorded as “unexpected improvement in bioactivity”.
Consider “KLKLKT1WAAVN*T1 (cyclo(KLKLK[T1″]WAAV[Nle][T1″])) [Peptide 14]”, for which the IC50 was more than 50 µM in the series on H929 myeloma cells (setting [18]) and 41 µM with H929 myeloma cells (setting [17]).
For “KLKLKT1WAVAN*T1 (cyclo(KLKLK[T1]WAVAL[T1]); not fully specified (residue 11); printed as KLKLKT1WAVAN*T1) [Peptide 13]” the same measures were 9 µM and 26 µM.
For “KLKLKT1WAVVAT1 (cyclo(KLKLK[T1]WAVVA[T1])) [Peptide 12]” the same measures were 10 µM and 69 µM.
For “KLKLKT1WAVVN*T1 (cyclo(KLKLK[T1]WAVV[Nle][T1])) [Peptide 11]” the same measures were 10 µM and 12 µM.
Consider “KLKLKT1WSVVMT1 (cyclo(KLKLK[T1]WSVVM[T1])) [Peptide 10]”, for which the IC50 in the series on H929 myeloma cells (setting [18]) worked out at 1 µM; with H929 myeloma cells (Table 4, H929 myeloma cells, 24 h, Topro-3 staining and FACS, mean of 3 independent experiments, read-out: IC50), 6.7 µM; in the series with H929 myeloma cells (Table 5, H929 multiple myeloma cells, 24 hour peptide treatment, mean and standard deviation of three independent experiments, read-out: IC50) it was 5.9 µM; in the series with H929 myeloma cells (setting [17]), 6 µM. The “bioactivity relative to parent/comparator peptide” value with H929 myeloma cells (H929 cells) was “increases in activity relative to the inverso peptide”.
For “KLKLQT1N*VVAWT3 (cyclo(KLKLQ[T1][Nle]VVAW[T3])) [Peptide 19]”, the values for the IC50 with H929 myeloma cells (setting [18]) and in the series on H929 myeloma cells (setting [17]) were 12 µM and 19 µM, respectively.
For “KLKQKT1N*VVAWT3 [17] (cyclo(KLKQK[T1][Nle]VVAW[T3])) [Peptide 17]” the same measures were 25 µM and 13 µM.
For “KLKQKT1N*VVAWT3 [21] (cyclo(KLKQK[T1][Nle]VVAW[T3])) [Peptide 21]” the same measures were 39 µM and 25 µM.
Regarding “KQKLKT1N*VVAWT3 (cyclo(KQKLK[T1][Nle]VVAW[T3])) [Peptide 20]”, the IC50 with H929 myeloma cells (setting [18]) is 15 µM; in the series with H929 myeloma cells (setting [17]) it was 18 µM.
The term Kd denotes the constant that tells how readily two partners part at equilibrium. Consider [dK][dI][dK][dM][dV][dI][dS][dW][dK]G (also: biotin conjugated, site not given here) [biotin-HYD1 (biotin conjugated HYD1, all D-amino acid peptide kikmviswkg)], for which the Kd in [2] is 0.0244 µM; in series [9], 0.026 µM. Moreover, the Peptide match (peptide match hits) in series [3] came out at 4; in series [4] it was 5; with CD59 [5] it was 2; in [6], 7; with β1 integrin, 2; in series [7], 7. The Peptide match (peptide match hits) is 3 in [8]; 6 in series [10]; 3 in series [11]; 2 with CD59 [12]; 8 in [13]; 6 in series [14]. Besides, the Peptide match (peptide match hits) in series [15] was 5. In addition, the # peptides identified in the series with CD59 [16] came out at 3 peptides.
